For the experiment, the system named is CEM cells HIV-1 protection, formazan growth assay. Briefly: NCI AIDS Antiviral Assay. The note with it: for IC50: measured here: growth of uninfected CEM cells. The procedure, abridged: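 Category rules: moderately active means at least 50% protection on retest, and confirmed active means 100% protection reproducibly. The underlying data came from a formazan growth assay in HIV-1-infected CEM cells.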

EC50, IC50 and outcome data for 28 compounds are collected here from PubChem BioAssay AID179 (DTP/NCI, 2004).

The structures appear in SMILES notation. Where “and” joins values, the source holds several entries; their conditions need not be identical. Equal values may be shown once. Calls of active or inactive are those of the source.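 Rule for the calls: active = compounds giving half or more protection of infected cells from virus-caused growth loss, again on retest; inactive = the rest.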

Turning to `O=c1nc2[nH]c3c4cccc5cccc(c3nc2c(=O)[nH]1)c54`, the EC50 – broadly, the midpoint of the concentration-response curve – was over 200 µM and the IC50 (usually the concentration needed to halve the response being measured) was 0.603 µM.

Consider `Nc1ccc(C(=O)Nc2ccccc2N)cc1`, for which the EC50 is over 1100 µM and the IC50 is 3.8 µM.

In the case of `O=C(CCCCCCCCC(=O)N1C(=O)CC(=O)N(c2ccc(Cl)cc2)C1=S)N1C(=O)CC(=O)N(c2ccc(Cl)cc2)C1=S`, the EC50 is over 200 µM and the IC50 was determined as 81.3 µM.

For the compound `C/C(=N\O)c1ccc(OCc2cc(C(F)(F)F)cc(C(F)(F)F)c2)cc1`, the EC50 was over 200 µM and the IC50 came to 40.7 µM.

On to `Nc1cc2nc3ccccc3sc-2cc1=O`, for which the EC50 came out at 3.39 µM and the IC50 amounted to 60.3 µM.

`C[C@]1(O)CC(=O)c2c(c(-c3ccc4cc5c(c(O)c4c3O)C(=O)C[C@@](C)(O)C5)c3cccc(O)c3c2O)C1`: the EC50 was over 200 µM and the concentration for half-maximal inhibition (IC50) worked out at 1.32 µM.

With `COc1cccc(-c2nc(-c3cnccn3)n(Cc3ccccc3)n2)c1`, the EC50 is over 200 µM and the IC50 is over 200 µM.

Take `CCCCCCCCCCCCCC/C(C(=O)OC)=C(/O)C(=O)OCC`: the EC50 was over 91.2 µM and the IC50 was 28.8 µM.

For `COc1cc([C@@H]2c3cc4c(c(O)c3C[C@H]3COC(=O)[C@@H]32)OCO4)cc(OC)c1O`, the EC50 was over 3.24 µM and the IC50 was found to be 0.00174 µM.

`O=S1(c2ccccc2)=NC(Nc2ccccc2)=Nc2ccccc21` (configuration not stated): the EC50 was over 36.3 µM and the IC50 was determined as 30.2 µM.

As for `N/C(=N\N=C\c1ccc2c(c1)OCO2)NO`, the EC50 was over 200 µM and the IC50 worked out at 105 µM.

As to `C=C1CN=C(Nc2ccc(F)cc2F)S1`, the EC50 is over 200 µM and the IC50 was over 100 µM.

On to `COc1ccc([C@H]2CC(=O)N3CCCC3N2)cc1` (some centres not stated), for which the EC50 was over 200 µM and the IC50 is over 200 µM.

On to `c1ccc([CH2][Sn]([CH2]c2ccccc2)([O]c2cccc3cccnc23)[O]c2cccc3cccnc23)cc1`, for which the outcome was inactive.

`CC(C)(C)[Si](C)(C)OC[C@H]1O[C@@H](n2ccc(=O)[nH]c2=O)[C@H](O[Si](C)(C)C(C)(C)C)[C@@]12N[C@H](C(=O)O)CS2`: the EC50 was over 200 µM and the IC50 was found to be 10 µM.

For the compound `CCCCCCCCCCCCOCCCCCCCCC/C=C/c1ccc2c(c1)OCCOCCOCCOCCO2`, the EC50 is over 200 µM and the IC50 was found to be 15.1 µM.

As for `O=C(O)/C=C/c1c2ccc(=O)c(O)c-2oc2c(O)c(O)ccc12`, the EC50 is 6.03 µM and 24 µM; the IC50 is 151 µM and 162 µM.

Turning to `NNC(=O)N/N=C1\C(=O)N(c2ccc(Cl)c(Cl)c2)C(=O)C(=O)C1c1nc2ccccc2s1` (configuration not stated), the outcome was inactive.

`CCOC(=O)C1=C2c3cccnc3-c3ccccc3N2C(C(=O)OCC)C1C(=O)OCC` (configuration not stated): the outcome was inactive.

Regarding `Cc1ccc(S(=O)(=O)N2CC3OC(C)(C)OC3C2CO)cc1` (configuration not stated), the result was inactive.

On to `CC1=NC(C)(COC(=O)C2(C)NC(C)(CO)CO2)COC1=O` (configuration not stated), for which the EC50 was over 200 µM and the IC50 was over 200 µM.

`O=C1c2ccccc2C(=O)N1CCc1ncc[nH]1`: the EC50 is over 200 µM and the IC50 is over 200 µM.

Regarding `N#C/C(=N/Nc1nc[nH]c1C(N)=O)C(=O)Nc1ccccc1`, the EC50 is over 200 µM and the IC50 was determined as 1.07 µM.

`Cc1ccccc1C1CC(=O)CC(c2ccccc2C)C12C(=O)NC(=O)NC2=O` (configuration not stated): the EC50 was over 200 µM and the IC50 was found to be 105 µM.

For `COC1=NC2=CC(=O)c3c(c(O)c(C)c4c3C(=O)C(C)(O/C=C/C(OC)C(C)C(OC(C)=O)C(C)C(O)C(C)C(O)C(C)/C=C/C=C\1C)O4)C2=O` (configuration not stated), the EC50 was over 200 µM and the IC50 is 33.1 µM.

In the case of `Cn1c(=O)oc2cc(C(=S)N3CCC(Cc4ccccc4)CC3)ccc21`, the EC50 was over 200 µM and the IC50 is over 200 µM.

Consider `COc1cccc(C2CC(C)=Nc3c(ccc4c3C(=O)c3ccccc3C4=O)N2)c1O` (configuration not stated), for which the EC50 is over 9.12 µM and the IC50 was over 9.12 µM.

Regarding `CCOC(=O)Cc1ccc(-c2cn3c(n2)sc2ccccc23)cc1`, the EC50 was over 200 µM and the IC50 was over 200 µM.
